Assay results: patent US12605330B2, “Screening method for offensive odor-suppressing material” (Takasago International Corporation, priority 2019, dated 2026)

Key:
[1] = tested on: cells not engineered to express the olfactory receptors; assay: Mock test, luciferase reporter gene assay; type: cell-based, human
Method: (§1) Each human olfactory receptor gene expression vector (0.05 μg), RTP1S vector (0.01 μg), firefly luciferase vector pGL4.29 containing a cAMP response element promoter (Promega, 0.01 μg) and Renilla luciferase vector pGL4.74 containing a thymidine kinase promoter (Promega, 0.005 μg) were dissolved in 10 μL of Opti-MEMI (gibco) to give a gene solution (for one well). HEK293T cells were seeded in 100 μL volumes into 96-well plates (Biocoat, Corning) at a cell density reaching confluence after 24 hours, and the gene solutions were added to the respective wells to cause gene transfer into the cells by lipofection techniques in accordance with the usage of Lipofectamine 3000, followed by culture at 37° C. under a 5% carbon dioxide atmosphere for 24 hours.
(§2) After removal of the culture solutions, an odorous substance serving as an analyte, which had been prepared at a given concentration with CD293 (gibco) medium (supplemented with […] L-glutamine), was added in 50 μL volumes to stimulate the cells for 3 hours, followed by luciferase activity measurement in accordance with the usage of a Dual-Luciferase Reporter Assay System (Promega). The response intensity of each olfactory receptor polypeptide was expressed as a fold increase value, which was determined by dividing the luciferase activity generated upon stimulation with the odorous substance by the luciferase activity generated in a test system not containing the odorous substance.
(§3) The cells engineered to express human olfactory receptors OR2C1 and OR4Q3 were used to measure the response of these receptors to various concentrations of 1-octen-3-one by the luciferase reporter gene assay.

[2] = target: T1, human olfactory receptor OR4Q3 (Homo sapiens, UniProt Q8NH05); assay: Luciferase reporter gene assay, response of olfactory receptor OR4Q3 to odorous substance; type: cell-based; conditions: HEK293T cells expressing OR4Q3, various concentrations, 3 hours stimulation; FIGS. 2, 4, 5, 6
T1 construct: N-terminal 20 amino acid residues of bovine rhodopsin (Rho tag); expressed in transfected cells; host or cells: HEK293T cells, pME18S expression vector, co-transfected with RTP1S vector and luciferase reporters
T1 sequence (Q8NH05 1-313): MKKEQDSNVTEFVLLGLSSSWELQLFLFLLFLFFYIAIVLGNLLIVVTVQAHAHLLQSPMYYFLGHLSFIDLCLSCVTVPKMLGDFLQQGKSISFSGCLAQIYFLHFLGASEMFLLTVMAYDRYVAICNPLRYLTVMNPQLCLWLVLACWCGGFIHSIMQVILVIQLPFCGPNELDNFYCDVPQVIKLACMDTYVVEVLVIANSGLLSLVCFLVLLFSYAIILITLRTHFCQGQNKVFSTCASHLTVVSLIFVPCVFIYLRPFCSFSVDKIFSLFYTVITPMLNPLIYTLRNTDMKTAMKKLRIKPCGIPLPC
Method: (§4) Human olfactory receptor genes were obtained by PCR cloning with Human Genomic DNA: Female (Promega) on the basis of their sequence information registered in GenBank. Into pME18S vectors, the N-terminal 20 amino acid residues of bovine rhodopsin were integrated and the resulting human olfactory receptor genes were integrated respectively downstream thereof to obtain human olfactory receptor gene expression vectors.
as §1, §2, §3

OR2C1 = target: T2, OR2C1 (Homo sapiens, UniProt O95371); assay: Suppressive effect of offensive odor-suppressing materials on the response of OR2C1 (luciferase reporter gene assay); type: cell-based; conditions: mixed at various concentrations with 30 μM 1-octen-3-one; FIGS. 7 and 8
T2 construct: N-terminal 20 amino acid residues of bovine rhodopsin (Rho tag); expressed in transfected cells; host or cells: HEK293T cells, pME18S expression vector, co-transfected with RTP1S vector and luciferase reporters
T2 sequence (O95371 1-312): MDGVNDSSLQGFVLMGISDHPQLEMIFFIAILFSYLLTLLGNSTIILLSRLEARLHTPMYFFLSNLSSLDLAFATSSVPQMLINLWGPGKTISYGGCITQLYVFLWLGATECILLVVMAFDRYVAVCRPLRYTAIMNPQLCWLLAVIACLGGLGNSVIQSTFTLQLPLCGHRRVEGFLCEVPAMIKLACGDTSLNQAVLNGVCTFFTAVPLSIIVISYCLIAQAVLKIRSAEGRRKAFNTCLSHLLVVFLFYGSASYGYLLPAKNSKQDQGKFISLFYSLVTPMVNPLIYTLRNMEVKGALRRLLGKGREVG
Description: as §4, with “vectors. […]” for “vectors.”
as §2, with “substance. […]” for “substance.”

[3] = target: T3, human olfactory receptor OR2C1 (Homo sapiens, UniProt O95371); assay: Luciferase reporter gene assay, response of olfactory receptor OR2C1 to odorous substance; type: cell-based; conditions: HEK293T cells expressing OR2C1, various concentrations, 3 hours stimulation; FIGS. 1 and 3
T3 construct: N-terminal 20 amino acid residues of bovine rhodopsin (Rho tag); expressed in transfected cells; host or cells: HEK293T cells, pME18S expression vector, co-transfected with RTP1S vector and luciferase reporters
T3 sequence (O95371 1-312): T2 sequence (O95371 1-312)
Description: as §4, with “vectors. […]” for “vectors.”
as §2, with “substance. […]” for “substance.”

olfactory receptor OR2W1 = target: T4, olfactory receptor OR2W1 (Homo sapiens, UniProt Q9Y3N9); conditions: background art; cited from earlier work
T4 sequence (Q9Y3N9 1-320): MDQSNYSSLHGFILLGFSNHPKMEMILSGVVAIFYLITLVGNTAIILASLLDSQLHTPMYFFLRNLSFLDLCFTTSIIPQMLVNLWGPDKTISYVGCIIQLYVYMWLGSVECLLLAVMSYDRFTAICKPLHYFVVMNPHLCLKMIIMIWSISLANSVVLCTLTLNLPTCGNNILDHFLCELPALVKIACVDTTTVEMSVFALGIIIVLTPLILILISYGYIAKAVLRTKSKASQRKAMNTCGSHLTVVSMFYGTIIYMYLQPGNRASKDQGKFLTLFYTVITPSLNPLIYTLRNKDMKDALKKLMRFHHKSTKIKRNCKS

[4] = background art; cited from earlier work

Row | SMILES | response in Mock test [1] | response of OR4Q3 to the odorous substance (fold increase value) [2] | other results
1 | C=CC(O)CCCCC (stereo not drawn) [1-octen-3-ol] | no response was observed | respond to 1-octen-3-ol in a concentration-dependent manner | 
2 | CC(=CCC1CC=C(C)C1(C)C)CO (stereo not drawn) [2-methyl-4-(2,2,3-trimethylcyclopent-3-enyl)but-2-en-1-ol] |  |  | suppressive effect on the response of OR2C1 to 1-octen-3-one (ratio of fold increase value, without material set to 100) (OR2C1): reducing the response of OR2C1 to 1-octen-3-one in a concentration-dependent manner
3 | C=CC(=O)CC=CCC [1,5-octadien-3-one] | no response was observed | respond to 1,5-octadien-3-one in a concentration-dependent manner | response of OR2C1 to the odorous substance (fold increase value) [3]: respond to 1,5-octadien-3-one in a concentration-dependent manner
4 | CCCC(O)CCC1C(C)CCCC1(C)C (stereo not drawn) [1-(2,2,6-trimethylcyclohexyl)hexan-3-ol] |  |  | suppressive effect on the response of OR2C1 to 1-octen-3-one (ratio of fold increase value, without material set to 100) (OR2C1): reducing the response of OR2C1 to 1-octen-3-one in a concentration-dependent manner
5 | C=CC(=O)CCCCC [1-octen-3-one] | no response was observed | respond to 1-octen-3-one in a concentration-dependent manner | response of OR2C1 to the odorous substance (fold increase value) [3]: respond to 1-octen-3-one in a concentration-dependent manner
6 | C=CC(O)CC=CCC (stereo not drawn) [1,5-octadien-3-ol] | no response was observed | respond to 1,5-octadien-3-ol in a concentration-dependent manner | 
7 | CCCCCC(=O)O [hexanoic acid] |  |  | response of OR2W1 to the odorous substance (olfactory receptor OR2W1): responds to hexanoic acid
8 | CC(C)c1cccc(C(C)CC=O)c1 (stereo not drawn) [florhydral] |  |  | inhibition of the activity of OR2W1 (olfactory receptor OR2W1): inhibiting the activity of this OR2W1; suppression of offensive odor induced by hexanoic acid in sensory testing [4]: suppress an offensive odor induced by hexanoic acid
